Data published in PMC9067983, “Identification of highly selective type II kinase inhibitors with chiral peptidomimetic tails” (Journal of Enzyme Inhibition and Medicinal Chemistry, 2022).
pIC50: −log10 of the molar value. Where a SMILES comes first, the peptide text is derived from it. [ ]: non-standard residue; d: D form. The star is where a group is joined. X1 = Cc1ccc(Nc2ncc3c(n2)N(C)C(=O)N(c2cc(C(=O)*)ccc2C)C3)cn1; Chg = N[C@H](C(=O)O)C1CCCCC1; Ac4c = NC1(C(=O)O)CCC1; Ac3c = NC1(C(=O)O)CC1; Aib = CC(C)(N)C(=O)O

Columns and labels:
[1] = biological target: T1, c-Src (Homo sapiens, UniProt P12931); assay: In vitro kinase assay (IC50); format: biochemical
T1 construct: purchased Reaction Biology Corp
Experimental: (§1) Full panel kinase profiling and kinase IC50 measurement were performed by using Reaction Biology Corp. (San Diego, USA).

[2] = biological target: T2, Lck (Homo sapiens, UniProt P06239); assay: In vitro kinase assay (IC50); format: biochemical
T2 construct: purchased Reaction Biology Corp
Experimental: as §1

T1 sequence (P12931 whole entry): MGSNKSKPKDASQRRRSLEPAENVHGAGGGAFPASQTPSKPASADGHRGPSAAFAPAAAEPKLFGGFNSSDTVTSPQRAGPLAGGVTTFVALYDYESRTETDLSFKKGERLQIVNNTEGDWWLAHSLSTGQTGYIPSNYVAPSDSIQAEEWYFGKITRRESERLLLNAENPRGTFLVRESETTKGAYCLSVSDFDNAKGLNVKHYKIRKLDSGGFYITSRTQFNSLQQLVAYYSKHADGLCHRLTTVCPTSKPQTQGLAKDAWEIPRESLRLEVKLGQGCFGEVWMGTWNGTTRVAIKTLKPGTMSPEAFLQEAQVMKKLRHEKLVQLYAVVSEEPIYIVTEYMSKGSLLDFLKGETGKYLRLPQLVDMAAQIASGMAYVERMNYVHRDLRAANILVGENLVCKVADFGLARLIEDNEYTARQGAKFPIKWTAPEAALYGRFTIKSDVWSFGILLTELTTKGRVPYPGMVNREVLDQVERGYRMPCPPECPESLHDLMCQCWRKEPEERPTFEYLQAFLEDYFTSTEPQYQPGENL
T2 sequence (P06239 whole entry): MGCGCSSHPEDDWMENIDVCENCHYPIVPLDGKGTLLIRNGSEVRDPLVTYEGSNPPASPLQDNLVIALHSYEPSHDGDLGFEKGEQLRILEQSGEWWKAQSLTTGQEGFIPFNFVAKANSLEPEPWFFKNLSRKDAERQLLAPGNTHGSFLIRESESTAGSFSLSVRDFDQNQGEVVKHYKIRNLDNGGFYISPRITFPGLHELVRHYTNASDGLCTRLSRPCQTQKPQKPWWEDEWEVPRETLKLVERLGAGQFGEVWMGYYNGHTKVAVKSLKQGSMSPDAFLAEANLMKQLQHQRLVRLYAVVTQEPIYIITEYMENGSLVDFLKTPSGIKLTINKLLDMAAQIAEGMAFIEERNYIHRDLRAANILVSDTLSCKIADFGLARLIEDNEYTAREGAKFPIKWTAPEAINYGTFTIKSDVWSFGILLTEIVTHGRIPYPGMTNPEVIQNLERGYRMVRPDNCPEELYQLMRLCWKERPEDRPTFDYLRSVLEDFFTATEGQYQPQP

| pIC50 [1] | pIC50 [2] | selectivity for Lck over c-Src [2] | Structure (SMILES) |
| --- | --- | --- | --- |
| 7.71 | 8.33 | – | CC1=N[C@H](Cc2ccccc2)C(=O)Nc2cc(C(=O)Nc3ccc(C)c(N4Cc5cnc(Nc6ccc(C)nc6)nc5N(C)C4=O)c3)ccc21 [11l, (R)-3-benzyl-5-methyl-N-(4-methyl-3-(1-methyl-7-((6-methylpyridin-3-yl)amino)-2-oxo-1,4-dihydropyrimido[4,5-d]pyrimidin-3(2H)-yl)phenyl)-2-oxo-2,3-dihydro-1H-benzo[e][1,4]diazepine-8-carboxamide] |
| 5.68 | 6.89 | – | Cc1ccc(Nc2ncc3c(n2)N(C)C(=O)N(c2cc(C(=O)N[C@H](C(=O)N4CCC[C@@H]4C(=O)NC4(C(=O)N[C@@H](CC(C)C)C(=O)N(C)C)CC4)C(C)C)ccc2C)C3)cn1 [7e, (R)-N-(1-(((S)-1-(dimethylamino)-4-methyl-1-oxopentan-2-yl)carbamoyl)cyclopropyl)-1-((4-methyl-3-(1-methyl-7-((6-methylpyridin-3-yl)amino)-2-oxo-1,4-dihydropyrimido[4,5-d]pyrimidin-3(2H)-yl)benzoyl)-L-valyl)pyrrolidine-2-carboxamide] (X1-V[dP][Ac3c]L-NMe2) |
| 5.76 | 7.19 | – | Cc1ccc(Nc2ncc3c(n2)N(C)C(=O)N(c2cc(C(=O)N[C@H](C(=O)N4CCC[C@@H]4C(=O)NCC(=O)N[C@@H](CC(C)C)C(=O)N(C)C)C(C)C)ccc2C)C3)cn1 [7h, (R)-N-(2-(((S)-1-(dimethylamino)-4-methyl-1-oxopentan-2-yl)amino)-2-oxoethyl)-1-((4-methyl-3-(1-methyl-7-((6-methylpyridin-3-yl)amino)-2-oxo-1,4-dihydropyrimido[4,5-d]pyrimidin-3(2H)-yl)benzoyl)-L-valyl)pyrrolidine-2-carboxamide] (X1-V[dP]GL-NMe2) |
| 8.21 | 8.42 | – | C=CCCC1=N[C@@H](CC(=O)Nc2ccc(C)c(N3Cc4cnc(Nc5ccc(C)nc5)nc4N(C)C3=O)c2)C(=O)N(C)c2ccccc21 [11p, (S)-2-(5-(but-3-en-1-yl)-1-methyl-2-oxo-2,3-dihydro-1H-benzo[e][1,4]diazepin-3-yl)-N-(4-methyl-3-(1-methyl-7-((6-methylpyridin-3-yl)amino)-2-oxo-1,4-dihydropyrimido[4,5-d]pyrimidin-3(2H)-yl)phenyl)acetamide] |
| 6.23 | 6.89 | – | Cc1ccc(Nc2ncc3c(n2)N(C)C(=O)N(c2cc(C(=O)N[C@@H](Cc4ccccc4)C(=O)N4CCC[C@@H]4C(=O)N[C@H](C(=O)N[C@H](C)c4ccccc4)C(C)C)ccc2C)C3)cn1 [7w, (R)-N-((S)-3-methyl-1-oxo-1-(((R)-1-phenylethyl)amino)butan-2-yl)-1-((4-methyl-3-(1-methyl-7-((6-methylpyridin-3-yl)amino)-2-oxo-1,4-dihydropyrimido[4,5-d]pyrimidin-3(2H)-yl)benzoyl)-L-phenylalanyl)pyrrolidine-2-carboxamide] |
| 7.61 | 7.75 | – | C=CCCC1=N[C@@H](CC(=O)Nc2ccc(C)c(N3Cc4cnc(Nc5ccc(C)nc5)nc4N(C)C3=O)c2)C(=O)N(Cc2ccccc2)c2ccccc21 [11q, (S)-2-(1-benzyl-5-(but-3-en-1-yl)-2-oxo-2,3-dihydro-1H-benzo[e][1,4]diazepin-3-yl)-N-(4-methyl-3-(1-methyl-7-((6-methylpyridin-3-yl)amino)-2-oxo-1,4-dihydropyrimido[4,5-d]pyrimidin-3(2H)-yl)phenyl)acetamide] |
| 6.91 | 7.21 | – | Cc1ccc(Nc2ncc3c(n2)N(C)C(=O)N(c2cc(C(=O)N[C@H](C(=O)N4CCC[C@H]4C(=O)N[C@@H](Cc4ccccc4)C(=O)N[C@@H](CC(C)C)C(=O)N(C)C)C(C)C)ccc2C)C3)cn1 [7i, (S)-N-((S)-1-(((S)-1-(dimethylamino)-4-methyl-1-oxopentan-2-yl)amino)-1-oxo-3-phenylpropan-2-yl)-1-((4-methyl-3-(1-methyl-7-((6-methylpyridin-3-yl)amino)-2-oxo-1,4-dihydropyrimido[4,5-d]pyrimidin-3(2H)-yl)benzoyl)-L-valyl)pyrrolidine-2-carboxamide] (X1-VPFL-NMe2) |
| 6.48 | 7.25 | – | CC[C@H](C)[C@H](NC(=O)c1ccc(C)c(N2Cc3cnc(Nc4ccc(C)nc4)nc3N(C)C2=O)c1)C(=O)N1CCC[C@H]1C(=O)NC(C)(C)C(=O)N[C@@H](CC(C)C)C(=O)N(C)C [7p, (S)-N-(1-(((S)-1-(dimethylamino)-4-methyl-1-oxopentan-2-yl)amino)-2-methyl-1-oxopropan-2-yl)-1-((4-methyl-3-(1-methyl-7-((6-methylpyridin-3-yl)amino)-2-oxo-1,4-dihydropyrimido[4,5-d]pyrimidin-3(2H)-yl)benzoyl)-L-isoleucyl)pyrrolidine-2-carboxamide] (X1-IP[Aib]L-NMe2) |
| 6.36 | 7.44 | > 10 fold | Cc1ccc(Nc2ncc3c(n2)N(C)C(=O)N(c2cc(C(=O)N[C@H](C(=O)N4CCC[C@H]4C(=O)NC(C)(C)C(=O)N[C@@H](CC(C)C)C(=O)N(C)C)C4CCCCC4)ccc2C)C3)cn1 [7s, (S)-1-((S)-2-cyclohexyl-2-(4-methyl-3-(1-methyl-7-((6-methylpyridin-3-yl)amino)-2-oxo-1,4-dihydropyrimido[4,5-d]pyrimidin-3(2H)-yl)benzamido)acetyl)-N-(1-(((S)-1-(dimethylamino)-4-methyl-1-oxopentan-2-yl)amino)-2-methyl-1-oxopropan-2-yl)pyrrolidine-2-carboxamide] (X1-[Chg]P[Aib]L-NMe2) |
| 8.40 | 8.98 | – | CC1=N[C@@H](CC(C)C)C(=O)N(C)c2cc(C(=O)Nc3ccc(C)c(N4Cc5cnc(Nc6ccc(C)nc6)nc5N(C)C4=O)c3)ccc21 [11m, (S)-3-isobutyl-1,5-dimethyl-N-(4-methyl-3-(1-methyl-7-((6-methylpyridin-3-yl)amino)-2-oxo-1,4-dihydropyrimido[4,5-d]pyrimidin-3(2H)-yl)phenyl)-2-oxo-2,3-dihydro-1H-benzo[e][1,4]diazepine-8-carboxamide] |
| 6.18 | 7.56 | – | Cc1ccc(Nc2ncc3c(n2)N(C)C(=O)N(c2cc(C(=O)N[C@H](C(=O)N4CCC[C@H]4C(=O)NC4(C(=O)N[C@@H](CC(C)C)C(=O)N(C)C)CCC4)C(C)C)ccc2C)C3)cn1 [7f, (S)-N-(1-(((S)-1-(dimethylamino)-4-methyl-1-oxopentan-2-yl)carbamoyl)cyclobutyl)-1-((4-methyl-3-(1-methyl-7-((6-methylpyridin-3-yl)amino)-2-oxo-1,4-dihydropyrimido[4,5-d]pyrimidin-3(2H)-yl)benzoyl)-L-valyl)pyrrolidine-2-carboxamide] (X1-VP[Ac4c]L-NMe2) |
| < 5.00 | 5.98 | – | Cc1ccc(Nc2ncc3c(n2)N(C)C(=O)N(c2cc(C(=O)N[C@H](C(=O)N4CCC[C@@H]4C(=O)NC(C)(C)C(=O)N[C@H](C(=O)N(C)C)C(C)C)C(C)C)ccc2C)C3)cn1 [7o, (R)-N-(1-(((S)-1-(dimethylamino)-3-methyl-1-oxobutan-2-yl)amino)-2-methyl-1-oxopropan-2-yl)-1-((4-methyl-3-(1-methyl-7-((6-methylpyridin-3-yl)amino)-2-oxo-1,4-dihydropyrimido[4,5-d]pyrimidin-3(2H)-yl)benzoyl)-L-valyl)pyrrolidine-2-carboxamide] (X1-V[dP][Aib]V-NMe2) |
| 5.25 | 6.39 | – | Cc1ccc(Nc2ncc3c(n2)N(C)C(=O)N(c2cc(C(=O)N[C@H](C(=O)N4CCC[C@@H]4C(=O)N[C@H](C(=O)N[C@H](C)c4ccccc4)C(C)C)C(C)C)ccc2C)C3)cn1 [7v, (R)-N-((S)-3-methyl-1-oxo-1-(((R)-1-phenylethyl)amino)butan-2-yl)-1-((4-methyl-3-(1-methyl-7-((6-methylpyridin-3-yl)amino)-2-oxo-1,4-dihydropyrimido[4,5-d]pyrimidin-3(2H)-yl)benzoyl)-L-valyl)pyrrolidine-2-carboxamide] |

| Structure (SMILES) | pIC50 [1] | pIC50 [2] | selectivity for Lck over c-Src [2] |
| --- | --- | --- | --- |
| Cc1ccc(Nc2ncc3c(n2)N(C)C(=O)N(c2cc(NC(=O)c4ccc5c(c4)NC(=O)[C@H](Cc4ccc(F)cc4)N=C5c4ccccc4)ccc2C)C3)cn1 [11g, (S)-3-(4-fluorobenzyl)-N-(4-methyl-3-(1-methyl-7-((6-methylpyridin-3-yl)amino)-2-oxo-1,4-dihydropyrimido[4,5-d]pyrimidin-3(2H)-yl)phenyl)-2-oxo-5-phenyl-2,3-dihydro-1H-benzo[e][1,4]diazepine-8-carboxamide] | 6.87 | 7.38 | – |
| Cc1ccc(Nc2ncc3c(n2)N(C)C(=O)N(c2cc(NC(=O)c4ccc5c(c4)N(C)C(=O)[C@H](CC(C)C)N=C5c4ccccc4)ccc2C)C3)cn1 [11h, (S)-3-isobutyl-1-methyl-N-(4-methyl-3-(1-methyl-7-((6-methylpyridin-3-yl)amino)-2-oxo-1,4-dihydropyrimido[4,5-d]pyrimidin-3(2H)-yl)phenyl)-2-oxo-5-phenyl-2,3-dihydro-1H-benzo[e][1,4]diazepine-8-carboxamide] | 6.87 | 7.61 | – |
| Cc1ccc(Nc2ncc3c(n2)N(C)C(=O)N(c2cc(NC(=O)c4ccc5c(c4)NC(=O)[C@@H](Cc4ccccc4)N=C5c4ccccc4)ccc2C)C3)cn1 [11f, (R)-3-benzyl-N-(4-methyl-3-(1-methyl-7-((6-methylpyridin-3-yl)amino)-2-oxo-1,4-dihydropyrimido[4,5-d]pyrimidin-3(2H)-yl)phenyl)-2-oxo-5-phenyl-2,3-dihydro-1H-benzo[e][1,4]diazepine-8-carboxamide] | 7.20 | 7.73 | – |
| Cc1ccc(Nc2ncc3c(n2)N(C)C(=O)N(c2cc(NC(=O)c4ccc5c(c4)N(CC(=O)NCc4ccccc4)C(=O)[C@H](CC(C)C)N=C5c4ccccc4)ccc2C)C3)cn1 [11o, (S)-1-(2-(benzylamino)-2-oxoethyl)-3-isobutyl-N-(4-methyl-3-(1-methyl-7-((6-methylpyridin-3-yl)amino)-2-oxo-1,4-dihydropyrimido[4,5-d]pyrimidin-3(2H)-yl)phenyl)-2-oxo-5-phenyl-2,3-dihydro-1H-benzo[e][1,4]diazepine-8-carboxamide] | 7.06 | 7.56 | – |
